PubChem BioAssay (NCI)
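In this assay, cells in 96-well plates receive the compound at five concentrations for 48 hours. Endpoints are linearly interpolated between the surrounding concentrations. Abbreviation: GI50, concentration required for 50% inhibition of growth. Definition used: TGI = concentration required for complete inhibition of growth.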

What was measured:
Test in all cases: DTP human tumour cell line panel, 48 h
HCC-2998 colon = system: HCC-2998 colon
COLO 205 colon = system: COLO 205 colon
NCI-H226 lung = system: NCI-H226 lung
HS 578T breast = system: HS 578T breast
TK-10 renal = system: TK-10 renal
CCRF-CEM leukemia = system: CCRF-CEM leukemia
LOX IMVI melanoma = system: LOX IMVI melanoma
K-562 leukemia = system: K-562 leukemia
OVCAR-4 ovarian = system: OVCAR-4 ovarian
ACHN renal = system: ACHN renal
UACC-62 melanoma = system: UACC-62 melanoma
UO-31 renal = system: UO-31 renal
SK-MEL-28 melanoma = system: SK-MEL-28 melanoma
HCT-116 colon = system: HCT-116 colon
OVCAR-5 ovarian = system: OVCAR-5 ovarian
EKVX NSCLC = system: EKVX NSCLC
SK-OV-3 ovarian = system: SK-OV-3 ovarian
A498 renal = system: A498 renal
SNB-19 CNS = system: SNB-19 CNS
MDA-MB-231 breast = system: MDA-MB-231 breast
RPMI-8226 leukemia = system: RPMI-8226 leukemia
SNB-75 CNS = system: SNB-75 CNS
MALME-3M melanoma = system: MALME-3M melanoma
SW-620 colon = system: SW-620 colon
786-0 renal = system: 786-0 renal
DU-145 prostate = system: DU-145 prostate
SF-268 CNS = system: SF-268 CNS
A549 NSCLC = system: A549 NSCLC
IGROV1 ovarian = system: IGROV1 ovarian
RXF 393 renal = system: RXF 393 renal
BT-549 breast = system: BT-549 breast
MCF7 breast = system: MCF7 breast
U251 CNS = system: U251 CNS
NCI-H460 lung = system: NCI-H460 lung
SR leukemia = system: SR leukemia
HOP-92 NSCLC = system: HOP-92 NSCLC
M14 melanoma = system: M14 melanoma
CAKI-1 renal = system: CAKI-1 renal
SK-MEL-2 melanoma = system: SK-MEL-2 melanoma
MOLT-4 leukemia = system: MOLT-4 leukemia
SN12C renal = system: SN12C renal
MDA-MB-435 = system: MDA-MB-435
PC-3 prostate = system: PC-3 prostate
KM12 colon = system: KM12 colon
OVCAR-8 ovarian = system: OVCAR-8 ovarian
NCI/ADR-RES ovarian = system: NCI/ADR-RES ovarian
OVCAR-3 ovarian = system: OVCAR-3 ovarian
NCI-H23 lung = system: NCI-H23 lung
UACC-257 melanoma = system: UACC-257 melanoma
SK-MEL-5 melanoma = system: SK-MEL-5 melanoma
SF-539 CNS = system: SF-539 CNS
NCI-H522 lung = system: NCI-H522 lung
HT29 colon = system: HT29 colon
HOP-62 NSCLC = system: HOP-62 NSCLC
HL-60(TB) leukemia = system: HL-60(TB) leukemia
T-47D breast = system: T-47D breast
HCT-15 colon = system: HCT-15 colon
SF-295 CNS = system: SF-295 CNS

## COc1ccc(-c2cc(-c3ccc(Nc4nc(Nc5ccc(Cl)cc5)nc(Nc5ccc(Cl)cc5)n4)cc3)nc(N)c2C#N)cc1
HCC-2998 colon
  GI50: 1850 nM
  TGI: 4.55 µM
COLO 205 colon
  GI50: 865 nM
  TGI: 2750 nM
NCI-H226 lung
  GI50: 676 nM
  TGI: 1.89 µM
HS 578T breast
  GI50: 1480 nM
  TGI: 5.68 µM
TK-10 renal
  GI50: 2080 nM
  TGI: 3.77 µM
CCRF-CEM leukemia
  GI50: 929 nM
  TGI: > 27.6 µM
LOX IMVI melanoma
  GI50: 1400 nM
  TGI: 2.73 µM
K-562 leukemia
  GI50: 1610 nM
  TGI: 5.38 µM
OVCAR-4 ovarian
  GI50: 2510 nM
  TGI: > 100 µM
ACHN renal
  GI50: 803 nM
  TGI: 2.18 µM
UACC-62 melanoma
  GI50: 2640 nM
  TGI: 10.6 µM
UO-31 renal
  GI50: 1570 nM
  TGI: 3.26 µM
SK-MEL-28 melanoma
  GI50: 490 nM
  TGI: 1.22 µM
HCT-116 colon
  GI50: 1650 nM
  TGI: 3.65 µM
OVCAR-5 ovarian
  GI50: 4.14 µM
  TGI: 24 µM
EKVX NSCLC
  GI50: 8.16 µM
  TGI: > 21.9 µM
SK-OV-3 ovarian
  GI50: 8.71 µM
  TGI: > 28.1 µM
A498 renal
  GI50: 2300 nM
  TGI: 5.84 µM
SNB-19 CNS
  TGI: > 24.1 µM
MDA-MB-231 breast
  GI50: 1540 nM
  TGI: 3.23 µM
RPMI-8226 leukemia
  GI50: 931 nM
  TGI: > 21.9 µM
SNB-75 CNS
  GI50: 1400 nM
  TGI: 3500 nM
MALME-3M melanoma
  GI50: 1730 nM
  TGI: 3.49 µM
SW-620 colon
  GI50: 666 nM
  TGI: 1.37 µM
786-0 renal
  GI50: 2240 nM
  TGI: 5.68 µM
DU-145 prostate
  GI50: 3910 nM
  TGI: 17 µM
SF-268 CNS
  GI50: 2880 nM
  TGI: 8.38 µM
A549 NSCLC
  GI50: 3640 nM
  TGI: > 100 µM
IGROV1 ovarian
  GI50: 2250 nM
  TGI: 5.88 µM
RXF 393 renal
  GI50: 491 nM
  TGI: 1.92 µM
BT-549 breast
  GI50: 3060 nM
  TGI: 9.11 µM
MCF7 breast
  GI50: 2590 nM
  TGI: > 32.3 µM
U251 CNS
  GI50: 2290 nM
  TGI: 6.58 µM
NCI-H460 lung
  GI50: 4200 nM
  TGI: > 54.2 µM
SR leukemia
  GI50: 485 nM
  TGI: 3.29 µM
HOP-92 NSCLC
  GI50: 1310 nM
  TGI: 3140 nM
M14 melanoma
  GI50: 1970 nM
  TGI: 4.36 µM
CAKI-1 renal
  GI50: 1470 nM
  TGI: 4.38 µM
SK-MEL-2 melanoma
  GI50: 1660 nM
  TGI: 3.2 µM
MOLT-4 leukemia
  GI50: 702 nM
  TGI: 3.56 µM
SN12C renal
  GI50: 2580 nM
  TGI: > 100 µM
MDA-MB-435
  GI50: 2220 nM
  TGI: 7.53 µM
PC-3 prostate
  GI50: 982 nM
KM12 colon
  GI50: 1950 nM
  TGI: 4.24 µM
OVCAR-8 ovarian
  GI50: 2120 nM
  TGI: > 51.2 µM
NCI/ADR-RES ovarian
  GI50: 13.3 µM
  TGI: > 100 µM
OVCAR-3 ovarian
  GI50: 1680 nM
  TGI: 3.18 µM
NCI-H23 lung
  GI50: 3520 nM
  TGI: > 87.7 µM
UACC-257 melanoma
  GI50: 1790 nM
  TGI: 3.63 µM
SK-MEL-5 melanoma
  GI50: 1780 nM
  TGI: 3.65 µM
SF-539 CNS
  GI50: 2020 nM
  TGI: 4150 nM
NCI-H522 lung
  GI50: 1750 nM
  TGI: 5.53 µM
HT29 colon
  GI50: 2250 nM
  TGI: 13 µM
HOP-62 NSCLC
  GI50: 11.9 µM
  TGI: > 42300 nM
HL-60(TB) leukemia
  GI50: 866 nM
  TGI: 4.59 µM
T-47D breast
  GI50: 894 nM
  TGI: 5.39 µM
HCT-15 colon
  GI50: 1540 nM
  TGI: 5.24 µM
SF-295 CNS
  GI50: 1680 nM
  TGI: 13.4 µM

## Cc1ccc(S(=O)(=O)NC(CCC(=O)Nc2ccc(Cl)cc2)C(=O)Nc2ccc(Cl)cc2)cc1 (stereo not given)
HCC-2998 colon
  GI50: 1480 nM
  TGI: 7.14 µM
COLO 205 colon
  GI50: 531 nM
  TGI: 2150 nM
NCI-H226 lung
  GI50: 841 nM
  TGI: 5.67 µM
HS 578T breast
  GI50: 1320 nM
  TGI: 7.5 µM
TK-10 renal
  GI50: 2950 nM
  TGI: 10 µM
CCRF-CEM leukemia
  GI50: 203 nM
  TGI: 7.22 µM
LOX IMVI melanoma
  GI50: 258 nM
  TGI: 5.63 µM
K-562 leukemia
  GI50: 51.9 nM
  TGI: 6.3 µM
OVCAR-4 ovarian
  GI50: 775 nM
  TGI: 3.46 µM
ACHN renal
  GI50: 248 nM
  TGI: 6.57 µM
UACC-62 melanoma
  GI50: 96.7 nM
  TGI: 0.367 µM
UO-31 renal
  GI50: 401 nM
  TGI: 7.28 µM
SK-MEL-28 melanoma
  GI50: 625 nM
  TGI: 6.48 µM
HCT-116 colon
  GI50: 139 nM
  TGI: 7.05 µM
OVCAR-5 ovarian
  GI50: 4.31 µM
  TGI: 11.4 µM
EKVX NSCLC
  GI50: 2.01 µM
  TGI: 9.31 µM
SK-OV-3 ovarian
  GI50: 0.869 µM
  TGI: 4.36 µM
A498 renal
  GI50: 717 nM
  TGI: 5.34 µM
SNB-19 CNS
  GI50: 707 nM
  TGI: 4.4 µM
MDA-MB-231 breast
  GI50: 263 nM
  TGI: 4.23 µM
RPMI-8226 leukemia
  GI50: 826 nM
  TGI: 7.43 µM
SNB-75 CNS
  GI50: 743 nM
  TGI: 2230 nM
MALME-3M melanoma
  GI50: 1820 nM
  TGI: 8.27 µM
SW-620 colon
  GI50: 555 nM
  TGI: 8.59 µM
786-0 renal
  GI50: 726 nM
  TGI: 5.69 µM
DU-145 prostate
  GI50: 1200 nM
  TGI: 9.89 µM
SF-268 CNS
  GI50: 862 nM
  TGI: 8.04 µM
A549 NSCLC
  GI50: 178 nM
  TGI: 6.72 µM
IGROV1 ovarian
  GI50: 852 nM
  TGI: 8.58 µM
RXF 393 renal
  GI50: 1890 nM
  TGI: 7.31 µM
BT-549 breast
  GI50: 967 nM
  TGI: 6.71 µM
MCF7 breast
  GI50: 287 nM
  TGI: 6.51 µM
U251 CNS
  GI50: 574 nM
  TGI: 5.13 µM
NCI-H460 lung
  GI50: 204 nM
  TGI: 7.33 µM
SR leukemia
  GI50: 197 nM
  TGI: 6.76 µM
HOP-92 NSCLC
  GI50: 805 nM
  TGI: 2760 nM
M14 melanoma
  GI50: 54.1 nM
  TGI: 6.58 µM
CAKI-1 renal
  GI50: 473 nM
  TGI: 8.14 µM
SK-MEL-2 melanoma
  GI50: 570 nM
  TGI: 6.64 µM
MOLT-4 leukemia
  GI50: 691 nM
  TGI: 7.66 µM
SN12C renal
  GI50: 685 nM
  TGI: 8.84 µM
MDA-MB-435
  GI50: 169 nM
  TGI: 9.74 µM
PC-3 prostate
  GI50: 396 nM
  TGI: 6.33 µM
KM12 colon
  GI50: 112 nM
  TGI: 6 µM
OVCAR-8 ovarian
  GI50: 724 nM
  TGI: 8.62 µM
NCI/ADR-RES ovarian
  GI50: 1.03 µM
  TGI: 7.63 µM
OVCAR-3 ovarian
  GI50: 930 nM
  TGI: 5.8 µM
NCI-H23 lung
  GI50: 1490 nM
  TGI: 9.21 µM
UACC-257 melanoma
  GI50: 702 nM
  TGI: 7.5 µM
SK-MEL-5 melanoma
  GI50: 235 nM
  TGI: 3.94 µM
SF-539 CNS
  GI50: 210 nM
  TGI: 1540 nM
NCI-H522 lung
  GI50: 496 nM
  TGI: 7.01 µM
HT29 colon
  GI50: 1350 nM
  TGI: 9.85 µM
HOP-62 NSCLC
  GI50: 0.62 µM
  TGI: 2070 nM
HL-60(TB) leukemia
  GI50: 369 nM
  TGI: 5.76 µM
T-47D breast
  GI50: 151 nM
  TGI: 2.64 µM
HCT-15 colon
  GI50: 118 nM
  TGI: 7.36 µM
SF-295 CNS
  GI50: 187 nM
  TGI: 0.956 µM
